# Source: patent US20090170759A1, “NEUROPROTECTIVE PEPTIDES” (priority 2007, published 2009)
# Legend:
# rat hippocampal cultures = assay: Neurite outgrowth assay (MAP2-FITC immunofluorescence), hippocampal cultures; type: cell-based; conditions: for neurite outgrowth in rat hippocampal cultures (in words): figure legends
# Description: (§1) Dissociated hippocampal and cortical cell cultures were established from embryonic day 18 rat fetuses as previously described (Mattson et al., 1994). Briefly, fetuses were removed via cesarean section from pregnant moms (Sprague-Dawley) anesthetized with halothane according to the AVMA Panel on Euthanasia. Pups were decapitated and the brains were removed and placed in HEPES-buffered Hank's Balanced Salt solution (HBSS; Gibco). The hippocampi and cortices were dissected out and pooled according to tissue-type. Tissue was trypsinized for 15 min (1 mg/ml trypsin-HBSS; Worthington), rinsed with fresh HBSS, incubated in trypsin inhibitor (1 mg/ml; Sigma) for 5 min, rinsed again with fresh HBSS and then triturated in 1 ml fresh HBSS with a fire-polished glass pipette. Dissociated cells were seeded at 30,000 cells/well onto poly-D-lysine coated 96-well plates (Collaborative BioScience). Each well contained 100 μl of Eagle's Minimal Essential Media (MEM; Gibco) supplemented with 26 mM NaHCO3 (Sigma), 56 mM glucose (Sigma), 15 mM KCl (Sigma), 1 mM sodium pyruvate (Sigma), 1.1 mM L-glutamine (Sigma), 10% (v/v) heat-inactivated fetal bovine serum (Hyclone), and 0.001% gentamicin sulfate (Sigma) (pH 7.4). Cells were allowed to attach for 24 h in a humidified 37° C. 5% CO2 incubator before experimental treatment. The culture media was aspirated and exchanged with fresh media every three days.
# (§2) Twenty-four hours after plating, cultures were treated with vehicle (PBS+0.1% BSA), 100 ng of various growth factors (brain derived neurotrophic factor (BDNF; Promega), glial-derived neurotrophic factor (GDNF; Promega), nerve growth factor (NGF; Boehringer Mannheim), basic fibroblast growth factor (bFGF; Boehringer Mannheim), insulin-like growth factor-1 (IGF-1; Boehringer Mannheim), neurotrophin-3 (NT3; Calbiochem), neurotrophin-4 (NT4; Calbiochem), ciliary neurotrophic factor (CNTF; Calbiochem), epidermal growth factor (EGF; Calbiochem), vascular endothelial growth factor (VEGF; Calbiochem)), or rhEPO (prepared same as above; 10 fM-10 nM)). Each treatment condition was run in quadruplicate or octuplicate. On the third day in culture, the media was aspirated off and replaced with fresh media and test compound. At one week in culture, the cells were fixed with 10% phosphate-buffered formalin for 15 min, then rinsed with DPBS (Sigma) and placed in blocking serum for 30 min (horse serum; 1:50 dilution in DPBS; Vector Labs). Cultures were rinsed again with DPBS and then incubated in primary antibody for 2 hr (microtubule-associated protein-2 (MAP-2) is a selective marker for dendritic processes; anti-mouse monoclonal (Chemicon); 1:1000 dilution of MAP-2 in antibody diluent (Zymed)). Negative control wells were incubated in antibody diluent alone. Background signal was determined by blank wells (cell-free) incubated with or without antibody. Cultures were rinsed again with DPBS and then placed in fluorescein for 1 hr (FITC; anti-mouse IgG; rat adsorbed; 1:50 dilution in DPBS; Vector Labs). Cultures were rinsed a final time with DPBS and then the plates were read on a Cytofluor 4000 fluorescence plate reader. Neurite outgrowth was expressed as percent change from control (vehicle; mean fluorescence±SD).
# (§3) Dissociated hippocampal and cortical cell cultures were established from embryonic day 18 rat fetuses as previously described (Mattson et al., 1994). Briefly, fetuses were removed via cesarean section from pregnant moms (Sprague-Dawley) anesthetized with halothane according to the AVMA Panel on Euthanasia. Pups were decapitated and the brains were removed and placed in HEPES-buffered Hank's Balanced Salt solution (HBSS; Gibco). The hippocampi and cortices were dissected out and pooled according to tissue-type. […]
# [1] = tested on: rat cerebral cortical cultures; assay: Neurite outgrowth assay (MAP2-FITC immunofluorescence), cortical cultures; type: cell-based; conditions: figure legends
# Description: as §1, §2, §3
Sequence,"neurite outgrowth increase over vehicle at peak activity, hippocampal cultures (rat hippocampal cultures; Example 4, 10 fM-10 nM tested)",neurite outgrowth in rat hippocampal cultures (in words) (rat hippocampal cultures),neurite outgrowth in rat cerebral cortical cultures (in words) [1]
YCHFGPLTWVC [EMP-23],43-46%,promotes neurite outgrowth,promotes neurite outgrowth
GGTYSCFGPLTWVCKPQGG [EMP-27],,promotes neurite outgrowth,promotes neurite outgrowth
GGTYSCHFAPLTWVCKPQGG [EMP-9],,promotes neurite outgrowth,promotes neurite outgrowth
GGTYSCHFGPLTWVCKPQGG [EMP-1],,promotes neurite outgrowth,promotes neurite outgrowth
GGTASCHFGPLTWVCKPQGG [EMP-6],,promotes neurite outgrowth,promotes neurite outgrowth
